Here are results for six compounds from US9907787B2, “Method of supplementing the diet and ameliorating oxidative stress” (priority 2008, dated 2018).

Where “and” joins values, the source holds several entries; their conditions need not be identical. Identical values can stand only once. Entries after “also recorded” stand apart in the source; their conditions may differ.

For data set [1] the following is noted: water soluble antioxidants and chelators, rapidly cleared by kidneys or liver; cited from earlier work.
Data set [2] in a line: Effect of OSR treatment on essential elements. The format is in vivo. The settings on record: treatment with OSR. An excerpt: (§1) Also, copper and zinc are primarily found in a water environment (hydrophilic aspects) of the body whereas OSR partitions into the hydrophobic aspects. This separation may play a role in the lack of OSR removing copper and zinc. However, in diseases with excess free copper, iron or zinc, OSR is likely to be able to bind and decrease the toxicity of these metals.

Data set [3] concerns rats injected with mercuric chloride. Put plainly: Protective effects of OSR on rats injected with mercuric chloride. The format is in vivo, rat. Further details: key to survival (Alive/Dead): A = Alive; D = Dead. Particulars: for survival (Alive/Dead): Rat 1-3. As for the experimental part: Protective effects of OSR on rats injected subcutaneously with mercuric chloride.
Our experiments were designed around this value.
For each of the experiments nine, 5-7 weeks old, rats were chosen. They were divided into three groups and they were fed rat chow and water ad libitum.
The mercuric chloride was dissolved in PBS/DMSO and injected intraperitoneally at time zero.
The compound OSR was dissolved in 0.75 ml DMSO and 0.25 ml PBS. Injection was subcutaneous under the skin covering the stomach. These were done 20 min. after the injection of the mercuric chloride.

Data set [4] deals with blood GSH, GSSG. The data set is described as follows: Effect of daily OSR on blood GSH, GSSG levels and GSH/GSSG ratios. The format is in vivo, human. The settings on record: 10 subjects, 200 mg of OSR per day. An excerpt: Effect of daily administration of OSR on key biochemical parameters. […] Also, the major improvement seemed to result from the very significant decrease in oxidized glutathione (GSSG) instead of a total increase in all forms of glutathione. This would be best explained by OSR scavenging hydroxyl free radicals salvaging the GSH by preventing its oxidation to GSSG. This change occurred in 10 of 10 subjects.
All were in reasonable health with no obvious bacterial infections. GSH/GSSG ratios increased in all primarily due to the drop in GSSG levels in all subjects. […] The average tGSH/GSSG ratio almost doubled caused by a near average halving of the GSSG levels.

Data set [5] in a line: Solubility. Type of data set: physicochemical. From the text:
In fact, the compounds in U.S. Pat. No. 6,586,600 were mostly ineffective at treating environmental contaminations of heavy metal due to their insolubility in water and many organic solvents. The conventional wisdom is that any metal chelator has to be water soluble to be effective is evidenced by the currently known chelators such as dimercapopropane sulfonate (DMPS), dimercaptosuccinic acid (DMSA), ethylenediaminetetraacetic acid (EDTA) and even the natural mammalian heavy metal chelator glutathione. These observations made the use of the compounds questionable for any mammalian based treatment regarding the removal of charged toxic metals like Hg^2+, Pb^2+, and Cd^2+ which are water soluble and would most likely be located in the aqueous aspects of mammalian tissues. Additionally, any compound that is not water soluble nor soluble in most organic solvents would not be expected to pass the intestinal endothelial membrane barrier and enter the blood and tissues of the mammal. Further, the compound(s) would have to cross the cell membrane to be able to interact with and bind the intracellular located heavy metal responsible for the toxic effects. It would also have to be able to cross the blood brain barrier to be effective for any neurotoxic heavy metal effect. […]

Data set [6] is described as follows: Affinity for heavy metals. The format is binding.
Text: as §1

Data set [7] in a line: Storage stability. Type of data set: physicochemical. Particulars: sealed plastic test tubes, sixteen months, room temperature. An excerpt:
OSR also has excellent stability when stored in sealed plastic test tubes with less than three percent breakdown occurring at sixteen months of storage at room temperature. Most antioxidants break down very rapidly when exposed to air or water but OSR is exceptional in this regards.

Data set [8] concerns glutathione-S-transferase (GST). The data set is described as follows: Effect of OSR on Glutathione-S-transferase (GST) levels. Type of data set: in vivo, human. Particulars: for Glutathione-S-transferase (GST) levels: lines = patients 1-10. An excerpt: GST is an enzyme that uses glutathione (GSH) as a substrate to covalently modify certain organic toxins by ‘transferring GSH’ to a P-450 enzyme oxidized site on the toxin. […] GST was non-detectable in all 10 patients at the start of the study and was detectable in all 10 patients at the end of the study. The change in the redox level most likely had something to do with the appearance of this enzyme. It is a common mechanism in cellular regulation that the lowering of a substrate (e.g. glutathione) needed at several locations results in the suppressed expression of the enzyme (e.g. GST) that use this substrate for reactions that are less necessary to support survival. The buildup of GSH most likely induces the expression of GST and this buildup accounts for the induction of new GST synthesis.

The nature of data set [9]: Kinetic study: plasma half-life, tissue distribution and clearance. The format is in vivo. From the text: The mitochondria, especially if abnormal or damaged by heavy metals or radiation, are the main producers of the free radicals that cause cellular damage to the membranes, proteins or nucleic acids (DNA, RNA). Therefore, OSR is positioned to intercept these free radicals before they do damage and the ORAC scores show us OSR is exceptional at scavenging these toxic chemicals. Thus, OSR operates as an antioxidant in a more efficient and effective level than antioxidants generally known in the art.
It should also be appreciated that OSR is cleared from all tissues tested by over 90% twenty-four hours after ingestion. Therefore, no toxic build-up of OSR occurs in the mammal.
Preferred dosage forms for oral administration include the isolated compounds in powder form. Such powders may be taken up with a swoop and spread onto food or mixed into drinks for easy consumption without bad taste. The pure compounds may be pre-mixed with certain dietary ingredients such as butter, olive oil, corn oil, albumin, whey or other foods which will help in absorption of the compounds by the mere process of dissolving them. Using OSR dissolved in corn oil, it was determined that it takes two hours post ingestion for the maximum level of OSR to show up in the plasma of all tested animals.

The test system of data set [10] is cysteine, methionine, homocysteine. Put plainly: Effect of OSR on blood sulfur containing amino acid levels. The format is in vivo, human. Particulars: 10 patients, two month period. An excerpt: To determine if OSR changed the level of cysteine, the rate limiting amino acid in glutathione synthesis, the level of all thiol containing amino acids was done for the same 10 patients for a two month period. […] The homocysteine level was high in patient #9, a person diagnosed with Alzheimer's disease, over the two month testing their levels dropped to near normal levels.
The possible exception was the homocysteine levels in patient #9, a person with Alzheimer's disease.

Data set [11] in a line: Toxicity / LD-50 in test animals. The format is in vivo. From the text: In fact, OSR is so non-toxic that an LD-50 could not be identified and was established as greater than 5 grams per kilogram body weight.
The nature of data set [12]: ORAC (oxygen-radical-absorbance-capacity) score. Type of data set: biochemical. The method, then:
As should be appreciated from the following table, OSR has an exceptionally high ORAC (oxygen-radical-absorbance-capacity) score.
The ORAC score is measured by a compound or elixer's ability to intercept reactive oxygen species, free radicals preventing them from oxidizing a water soluble fluorescent vitamin-E derivative. OSR has the ability in the body to protect vitamin-E (a fat soluble vitamin) and other fat soluble natural compounds such as lipids from damage by oxidizing free radicals since it partitions into the hydrophobic areas where they exist and reacts with free radicals more effectively than they do, thereby scavenging the hydroxyl free radicals and preventing them from doing damage. […] OSR is more capable of reacting with these radicals than vitamin-E and, accordingly, OSR should provide even better protection. In fact, OSR should salvage vitamin E and D in vivo.

Data set [13] has as its system rats. Particulars: intraperitoneal; cited from earlier work.

For the compound `O=S(=O)(O)CC(S)CS` (centres unmarked) [DMPS, dimercaptopropane sulfonate], the half-life entry in data set [1] is given as “less than one to two”.
Consider `O=C(O)C(S)C(S)C(=O)O` (centres unmarked) [DMSA, dimercaptosuccinic acid], for which the half-life result in [1] was “less than one to two”.
As for `O=C(NCCS)c1cccc(C(=O)NCCS)c1` [OSR, N,N′-bis(2-mercaptoethyl)isophthalamide], the “lowering of essential elements copper, iron and zinc” value in data set [2] is on record as “does not result in a significant lowering”. The “survival (Alive/Dead)” value was “A” in data set [3] (0 hr, mercury chloride 2 mg/kg body weight, OSR 0.5 millimoles/kg subcutaneous 20 min after); “A” in data set [3] (0 hr, mercury chloride 14 mg/kg body weight, OSR 1 mM/kg body weight subcutaneous 20 min after); “A” in [3] (1 week, mercury chloride 2 mg/kg body weight, OSR 0.5 millimoles/kg subcutaneous 20 min after); “A” in [3] (1 week, mercury chloride 14 mg/kg body weight, OSR 1 mM/kg body weight subcutaneous 20 min after); “A” in data set [3] (6 hr, mercury chloride 2 mg/kg body weight, OSR 0.5 millimoles/kg subcutaneous 20 min after); “A” in [3] (6 hr, mercury chloride 14 mg/kg body weight, OSR 1 mM/kg body weight subcutaneous 20 min after). The “survival (Alive/Dead)” value in [3] (12 hr, mercury chloride 2 mg/kg body weight, OSR 0.5 millimoles/kg subcutaneous 20 min after) was “A”; in data set [3] (12 hr, mercury chloride 14 mg/kg body weight, OSR 1 mM/kg body weight subcutaneous 20 min after) it was “A”; in data set [3] (24 hr, mercury chloride 2 mg/kg body weight, OSR 0.5 millimoles/kg subcutaneous 20 min after) it was “A”; in data set [3] (24 hr, mercury chloride 14 mg/kg body weight, OSR 1 mM/kg body weight subcutaneous 20 min after), “A”; in data set [3] (48 hr, mercury chloride 2 mg/kg body weight, OSR 0.5 millimoles/kg subcutaneous 20 min after) it was “A”; in [3] (48 hr, mercury chloride 14 mg/kg body weight, OSR 1 mM/kg body weight subcutaneous 20 min after) it was “D and A”. Moreover, in data set [3] (rats given 0.6 lethal dose of mercury chloride, 10-fold excess of OSR twenty-thirty minutes later), the “protection from mercury induced toxic effects (blood in urine and feces, death, weight loss, ataxia)” value is on record as “protected from mercury induced toxic effects”. In addition, the “excretion route of OSR bound mercury” value in data set [3] (rats given mercury chloride and OSR) is “primarily excreted through the fecal route”. Further, the protection from death entry in data set [3] (rats injected with 1-5 levels (or higher) of lethal doses of mercury chloride, single 10-fold excess of OSR dissolved in DMSO) is reported as “protected from death”. In addition, in data set [4] (two months), the “GSH levels, result in words” value is recorded as “increased slightly in 7 of 10”. For the same compound, the “redox ratio (GSH/GSSG), result in words” value in data set [4] (whole blood, OSR taken regularly, approximately 60 days) is “significantly increase; also recorded: dramatically improved”. Besides, the lipid solubility result in [5] is on record as “lipid soluble”. Further, in data set [6], the “affinity for mercury, lead, arsenic and cadmium” value was “exceptionally high affinity”. Besides, the breakdown on storage entry in data set [7] is recorded as “less than three”. Further, the “glutathione-S-transferase (GST), result in words” value in data set [8] (10 patients, after OSR treatment) is recorded as “consistently elevated in all 10 patients”. Besides, the “Glutathione-S-transferase (GST) levels” value in [8] (time 1 month) was 0.58 ng/mL and 0.46 ng/mL; in [8] (time 2 months), 0.53 ng/mL and 0.43 ng/mL and 0.37 ng/mL and 0.32 ng/mL and 0.63 ng/mL and 0.48 ng/mL. Also, in data set [9] (24 hours post-ingestion, OSR dissolved in corn oil), the “OSR levels relative to peak values seen at hour 2” value is 4-12%. The “time post ingestion for the maximum level of OSR in plasma” value in data set [9] (OSR dissolved in corn oil, all tested animals) is recorded as “two”. For the same compound, in data set [9] (kinetic study, all tissues tested), the “blood brain barrier / tissue entry” value is “crosses the blood brain barrier”. Moreover, the half-life in plasma entry in [9] (plasma of test animals) is given as “about six to seven”. For the same compound, in data set [9] (twenty-four hours after ingestion), the “cleared from all tissues tested” value is “over 90%”. Besides, the “changes in cysteine, methionine or homocysteine levels, result in words” value in [10] is reported as “No significant consistent changes”. Besides, the LD-50 entry in data set [11] is “greater than 5 grams per kilogram body weight”. Besides, the toxicity entry in data set [11] (levels up to 5,000 mg per day) is on record as “without toxicity”. The “ORAC Score” value in data set [12] was 192,400 μmoleTE/100 g.
Regarding `N[C@@H](CCC(=O)N[C@@H](CS)C(=O)NCC(=O)O)C(=O)O` [glutathione], the half-life result in [1] was “less than one to two”.
Take `[Cl][Hg][Cl]` [mercury chloride]: the “LD 50” value in data set [13] was 3.2 mg/kg body weight.
As for `Oc1ccc(C=Cc2cc(O)cc(O)c2)cc1` [resveratrol], the half-life entry in data set [1] was “less than one to two”.
